In patent publication US20250026778A1 (TIUMBIO CO., LTD., priority 2021, published 2025):

Target: T1, his-galectin-3 (Homo sapiens, UniProt P17931)
T1 construct: purchased Abcam
Assay: TR-FRET assay (in vitro galectin-3 binding inhibitory activity test)
Settings: Table 2; compound at 20 μM; 60 nM his-galectin-3, 15 nM biotin-ASF; read-out: % Inhibitory activity (at 20 μM)
Method in brief: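 Compound is premixed with his-galectin-3 (60 nM final), then biotin-ASF (15 nM), Tb anti-His antibody (2 nM) and streptavidin-d2 (20 nM) are added. After at least 3.5 hours at RT in HEPES/NaCl buffer with Tween 20 and BSA, TR-FRET is read at 615/665 nm. DMSO serves as the uninhibited control, ASF omission as background.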

T1 sequence (P17931 whole entry): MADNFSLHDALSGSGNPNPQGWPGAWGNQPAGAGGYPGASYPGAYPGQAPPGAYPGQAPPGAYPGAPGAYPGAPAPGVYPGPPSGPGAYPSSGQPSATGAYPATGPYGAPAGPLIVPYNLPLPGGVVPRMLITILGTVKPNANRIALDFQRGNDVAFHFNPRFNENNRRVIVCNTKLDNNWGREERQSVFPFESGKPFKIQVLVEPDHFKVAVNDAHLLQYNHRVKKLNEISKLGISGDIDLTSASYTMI

| Compound | inhibition at 20 µM |
| --- | --- |
| OC[C@H]1O[C@@]2(CCCN(c3cccc4ccccc34)C2)[C@H](O)[C@@H](n2cc(-c3cc(F)c(F)c(F)c3)nn2)[C@H]1O [Compound A220, (2R,3R,4S,5R,6R)-2-(hydroxymethyl)-8-(naphthalen-1-yl)-4-(4-(3,4,5-trifluorophenyl)-1H-1,2,3-triazol-1-yl)-1-oxa-8-azaspiro[5.5]undecane-3,5-diol] | < 25% |
| OC[C@H]1O[C@@]2(CCCN(c3ccccc3Cl)C2)[C@H](O)[C@@H](n2cc(-c3cc(F)c(F)c(F)c3)nn2)[C@H]1O [Compound A222, (2R,3R,4S,5R,6R)-8-(2-chlorophenyl)-2-(hydroxymethyl)-4-(4-(3,4,5-trifluorophenyl)-1H-1,2,3-triazol-1-yl)-1-oxa-8-azaspiro[5.5]undecane-3,5-diol] | < 25% |
| OC[C@H]1O[C@@]2(CCCN(c3ccc(Cl)cc3)C2)[C@H](O)[C@@H](n2cc(-c3cc(F)c(F)c(F)c3)nn2)[C@H]1O [Compound A224, (2R,3R,4S,5R,6R)-8-(4-chlorophenyl)-2-(hydroxymethyl)-4-(4-(3,4,5-trifluorophenyl)-1H-1,2,3-triazol-1-yl)-1-oxa-8-azaspiro[5.5]undecane-3,5-diol] | < 25% |
| OC[C@H]1O[C@@]2(CCCN(c3cccs3)C2)[C@H](O)[C@@H](n2cc(-c3cc(F)c(F)c(F)c3)nn2)[C@H]1O [Compound A225, (2R,3R,4S,5R,6R)-2-(hydroxymethyl)-8-(thiophen-2-yl)-4-(4-(3,4,5-trifluorophenyl)-1H-1,2,3-triazol-1-yl)-1-oxa-8-azaspiro[5.5]undecane-3,5-diol] | < 25% |

Results, then the compound that gave them:

| inhibition at 20 µM | Compound |
| --- | --- |
| > 75% | Cc1oc2ccccc2c1C(=O)N[C@@H]1CCO[C@]12O[C@H](CO)[C@H](O)[C@H](n1cc(-c3cc(F)c(F)c(F)c3)nn1)[C@H]2O [Compound A218, N-((4R,5S,7R,8R,9S,10R)-8,10-dihydroxy-7-(hydroxymethyl)-9-(4-(3,4,5-trifluorophenyl)-1H-1,2,3-triazol-1-yl)-1,6-dioxaspiro[4.5]decan-4-yl)-2-methylbenzofuran-3-carboxamide] |
| 50 to 75% | O=C(N[C@@H]1CCO[C@]12O[C@H](CO)[C@H](O)[C@H](n1cc(-c3cc(F)c(F)c(F)c3)nn1)[C@H]2O)c1c[nH]c2ccc(Cl)cc12 [Compound A219, 5-chloro-N-((4R,5S,7R,8R,9S,10R)-8,10-dihydroxy-7-(hydroxymethyl)-9-(4-(3,4,5-trifluorophenyl)-1H-1,2,3-triazol-1-yl)-1,6-dioxaspiro[4.5]decan-4-yl)-1H-indole-3-carboxamide] |
| < 25% | OC[C@H]1O[C@@]2(CCCN(c3cccc(Cl)c3)C2)[C@H](O)[C@@H](n2cc(-c3cc(F)c(F)c(F)c3)nn2)[C@H]1O [Compound A223, (2R,3R,4S,5R,6R)-8-(3-chlorophenyl)-2-(hydroxymethyl)-4-(4-(3,4,5-trifluorophenyl)-1H-1,2,3-triazol-1-yl)-1-oxa-8-azaspiro[5.5]undecane-3,5-diol] |
| < 25% | O=C(c1ccc(Cl)cc1)N1CCC[C@]2(C1)O[C@H](CO)[C@H](O)[C@H](n1cc(-c3cc(F)c(F)c(F)c3)nn1)[C@H]2O [Compound A227, (4-chlorophenyl)((2R,3R,4S,5R,6R)-3,5-dihydroxy-2-(hydroxymethyl)-4-(4-(3,4,5-trifluorophenyl)-1H-1,2,3-triazol-1-yl)-1-oxa-8-azaspiro[5.5]undecan-8-yl)methanone] |

Same assay, conditions: Table 3, found values; compound at 20 μM; 60 nM his-galectin-3, 15 nM biotin-ASF; read-out: % Inhibitory activity (at 20 μM)

| inhibition at 20 µM | Compound |
| --- | --- |
| 24.2% | OC[C@H]1O[C@@]2(CCCN(c3ccc(Cl)cc3)C2)[C@H](O)[C@@H](n2cc(-c3cc(F)c(F)c(F)c3)nn2)[C@H]1O [Compound A224, (2R,3R,4S,5R,6R)-8-(4-chlorophenyl)-2-(hydroxymethyl)-4-(4-(3,4,5-trifluorophenyl)-1H-1,2,3-triazol-1-yl)-1-oxa-8-azaspiro[5.5]undecane-3,5-diol] |

Same assay, conditions: read-out: % Inhibitory activity (at 20 μM), Table 2; compound at 20 μM; 60 nM his-galectin-3, 15 nM biotin-ASF

| Compound | inhibition at 20 µM |
| --- | --- |
| OC[C@H]1O[C@@]2(CCCN(c3ccncn3)C2)[C@H](O)[C@@H](n2cc(-c3cc(F)c(F)c(F)c3)nn2)[C@H]1O [Compound A226, (2R,3R,4S,5R,6R)-2-(hydroxymethyl)-8-(pyrimidin-4-yl)-4-(4-(3,4,5-trifluorophenyl)-1H-1,2,3-triazol-1-yl)-1-oxa-8-azaspiro[5.5]undecane-3,5-diol] | < 25% |
